The test system of test [1] is vascular endothelial growth factor (VEGF) expression in human dermal papilla cells. Particulars: cited from earlier work.
Test [2] concerns VEGF gene expression in human dermal papilla cells. Nature of the test: Evaluation of human dermal papilla cell VEGF gene expression (real-time PCR). Type of test: cell-based. Particulars: 72 hours, relative to negative control group, GAPDH internal standard, FIG. 1. The protocol: The VEGF gene is expressed in dermal papilla cells, and contributes to expression of such effects as increase in hair shaft diameter and improving maximum hair shaft length and improving hair shaft elongation rate and hair shaft growth promotion at head hair, beard, eyebrows, and/or eyelashes. Human dermal papilla cells were therefore used, and evaluation was carried out with respect to increase in VEGF gene expression for the respective components.
Human dermal papilla cells (Catalog No. CA60205a; derived from person; Toyobo Co., Ltd. (Japan)) were purchased, testing and evaluation being carried out with maintenance and culture of cells being performed as described in the protocol.
As drugs for testing, drug solutions of the following respective concentrations (final concentrations) were prepared and used. • Comparative Example 1: 100 μM adenosine • Working Example 1: 0.3125 μM phytosphingosine • Working Example 2: 1.25 μM phytosphingosine • Working Example 3: Liquid mixture of 100 μM adenosine and 1.25 μM phytosphingosine
A 24-well plate was seeded with human dermal papilla cells so as to obtain 6×10^3 thereof per well. […] The GAPDH gene was used as an internal standard, the amount of VEGF gene expression being calculated relative to the negative control group. […]
300 μL of lysis buffer RL was added thereto per well, and the cells were lysed by pipetting. […] Concentration of the recovered RNA was measured using a NanoDrop Lite (Catalog No. ND-LITE; Thermo Fisher Scientific K.K.), and this was stored at −80° C. until the following cDNA creation procedure.
A FastGene scriptase II cDNA synthesis 5× Ready Mix (Catalog No. NE-LS64; Nippon Genetics Co., Ltd. (Japan)) was used to synthesize cDNA. Dilution with RNase Free Water was carried out so as to cause concentration of total RNA produced in a new tube to be […], 4 μL of FastGene scriptase II cDNA synthesis 5× Ready Mix was added to 16 μL of this sample solution, and this was agitated by vortexing. […]
(In general: Real-time PCR tracks product formation cycle by cycle.)

Turning to `Nc1ncnc2c1ncn2[C@@H]1O[C@H](CO)[C@@H](O)[C@H]1O` [adenosine], the “expression of vascular endothelial growth factor (VEGF)” value in test [1] is given as “promotes expression of vascular endothelial growth factor (VEGF)”. In the case of `CCCCCCCCCCCCCC[C@@H](O)[C@@H](O)[C@@H](N)CO` [Working Example 1, phytosphingosine], in test [2], the “change in amount of expression of the VEGF gene” value is on record as “increase in dosage-dependent fashion in the amount of expression of the VEGF gene as compared with the control group”. Still for that read-out and setting: the same measure for `CCCCCCCCCCCCCC[C@@H](O)[C@@H](O)[C@@H](N)CO` [Working Example 2, phytosphingosine]: “increase in dosage-dependent fashion in the amount of expression of the VEGF gene as compared with the control group”. On the same count and under the same terms, next, `CCCCCCCCCCCCCC[C@@H](O)[C@@H](O)[C@@H](N)CO` [phytosphingosine]: “significantly greater than that which was produced as a result of action of adenosine”.

Source of the values: patent publication US20240285501A1, “HAIR GROWTH AGENT” (ADJUVANT HOLDINGS CO., LTD., priority 2021, published 2024).
